Results: patent US12601742B2, “Methods and materials for treating endometrial cancer by assessing combinations of mutations and expression levels” (Mayo Foundation for Medical Education and Research, priority 2020, dated 2026)

Legend:
[1] = test system: ARK-2 cell line; assay: MTT cell viability assay and synergy assessment, ARK-2; assay type: cell-based; conditions: constant ratio, 72 hours; for combinatory effect of carboplatin with GSK2141795 (cell viability): ARK-2, simultaneous exposure
Experimental: (§1) HEC-1B (Type I) and ARK-2 (Type II), platinum-insensitive EC cell lines, were used in this study. Both cell lines were cultured in DMEM (Dulbecco's Modified Eagle's Medium) media containing 10% FBS, 100 μg/mL streptomycin, 100 units/mL penicillin, and 2 mM L-glutamine. Cells were maintained in incubator at 37° C. in an atmosphere containing 5% CO2. Three thousand cells/well were seeded in triplicate in 96-well plates and cells were treated with increasing concentrations of panobinostat, GSK2141795, and carboplatin for 72 hours, respectively. CellTiter 96® Aqueous One Solution Cell Proliferation Assay was performed according to the manual to assess the half maximum inhibitory concentration (IC50). Constant ratio studies were carried out to investigate the combinatory effect of carboplatin with panobinostat and GSK2141795 in both HEC-1B and ARK-2 cell lines.

[2] = test system: HEC-1B cell line; assay: MTT cell viability assay and synergy assessment, HEC-1B; assay type: cell-based; conditions: constant ratio, 72 hours; for combinatory effect of carboplatin with GSK2141795 (cell viability): simultaneous exposure
Experimental: as §1

N.N.O=C([O-])C1(C(=O)[O-])CCC1.[Pt+2] [carboplatin]
synergism: combinatory effect of carboplatin with GSK2141795 (cell viability) [1] | combinatory effect of carboplatin with panobinostat (cell viability) ([1]; ARK-2, varying concentrations) | combinatory effect of carboplatin with GSK2141795 (cell viability) [2] | combinatory effect of carboplatin with panobinostat (cell viability) ([2]; varying concentrations)

Cn1ncc(Cl)c1-c1cc(C(=O)N[C@H](CN)Cc2ccc(F)c(F)c2)oc1Cl [GSK2141795]
synergism: combinatory effect of carboplatin with GSK2141795 (cell viability) [1] | combinatory effect of carboplatin with GSK2141795 (cell viability) [2]
